Results published in PubChem BioAssay (NCI).
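Method: 48-hour compound exposure of cells in 96-well plates, five concentrations, linear interpolation of endpoints. TGI denotes the concentration required for complete inhibition of growth.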

How the values were obtained:
Experiment in all cases: NCI tumour cell line growth inhibition, 48 h
786-0 renal = test system: 786-0 renal
A498 renal = test system: A498 renal
A549 NSCLC = test system: A549 NSCLC
ACHN renal = test system: ACHN renal
BT-549 breast = test system: BT-549 breast
CAKI-1 renal = test system: CAKI-1 renal
CCRF-CEM leukemia = test system: CCRF-CEM leukemia
COLO 205 colon = test system: COLO 205 colon
DU-145 prostate = test system: DU-145 prostate
EKVX NSCLC = test system: EKVX NSCLC
HCC-2998 colon = test system: HCC-2998 colon
HCT-116 colon = test system: HCT-116 colon
HCT-15 colon = test system: HCT-15 colon
HOP-62 NSCLC = test system: HOP-62 NSCLC
HOP-92 NSCLC = test system: HOP-92 NSCLC
HS 578T breast = test system: HS 578T breast
HT29 colon = test system: HT29 colon
IGROV1 ovarian = test system: IGROV1 ovarian
KM12 colon = test system: KM12 colon
LOX IMVI melanoma = test system: LOX IMVI melanoma
M14 melanoma = test system: M14 melanoma
MALME-3M melanoma = test system: MALME-3M melanoma
MCF7 breast = test system: MCF7 breast
MDA-MB-231 breast = test system: MDA-MB-231 breast
MDA-MB-435 = test system: MDA-MB-435
MDA-N = test system: MDA-N
MOLT-4 leukemia = test system: MOLT-4 leukemia
NCI-H226 lung = test system: NCI-H226 lung
NCI-H23 lung = test system: NCI-H23 lung
NCI-H460 lung = test system: NCI-H460 lung
NCI-H522 lung = test system: NCI-H522 lung
NCI/ADR-RES ovarian = test system: NCI/ADR-RES ovarian
OVCAR-3 ovarian = test system: OVCAR-3 ovarian
OVCAR-4 ovarian = test system: OVCAR-4 ovarian
OVCAR-5 ovarian = test system: OVCAR-5 ovarian
OVCAR-8 ovarian = test system: OVCAR-8 ovarian
PC-3 prostate = test system: PC-3 prostate
RPMI-8226 leukemia = test system: RPMI-8226 leukemia
RXF 393 renal = test system: RXF 393 renal
SF-268 CNS = test system: SF-268 CNS
SF-295 CNS = test system: SF-295 CNS
SF-539 CNS = test system: SF-539 CNS
SK-MEL-2 melanoma = test system: SK-MEL-2 melanoma
SK-MEL-28 melanoma = test system: SK-MEL-28 melanoma
SK-MEL-5 melanoma = test system: SK-MEL-5 melanoma
SK-OV-3 ovarian = test system: SK-OV-3 ovarian
SN12C renal = test system: SN12C renal
SNB-19 CNS = test system: SNB-19 CNS
SNB-75 CNS = test system: SNB-75 CNS
SR leukemia = test system: SR leukemia
SW-620 colon = test system: SW-620 colon
T-47D breast = test system: T-47D breast
TK-10 renal = test system: TK-10 renal
U251 CNS = test system: U251 CNS
UACC-257 melanoma = test system: UACC-257 melanoma
UACC-62 melanoma = test system: UACC-62 melanoma
UO-31 renal = test system: UO-31 renal

With `O=[N+]([O-])c1ccc(Sc2c3ccccc3nc3ccccc23)nc1` the TGI (786-0 renal) was 4.25 µM, the TGI (A498 renal) was 32.8 µM and the TGI (A549 NSCLC) was 43.7 µM. The TGI (ACHN renal) was 20.5 µM, the TGI (BT-549 breast) was 27.3 µM and the TGI (CAKI-1 renal) was 11.8 µM. The TGI (CCRF-CEM leukemia) was 5.76 µM, the TGI (COLO 205 colon) was 6.39 µM and the TGI (DU-145 prostate) was 14.3 µM. The TGI (EKVX NSCLC) was 31 µM, the TGI (HCC-2998 colon) was 32.1 µM and the TGI (HCT-116 colon) was 4.22 µM. The TGI (HCT-15 colon) was 12.1 µM, the TGI (HOP-62 NSCLC) was 47.3 µM and the TGI (HOP-92 NSCLC) was 6.79 µM. It also gave a TGI (HS 578T breast) of 60.7 µM, a TGI (HT29 colon) of 8.62 µM and a TGI (IGROV1 ovarian) of 30.6 µM. For the same molecule, the TGI (KM12 colon) was 44.5 µM, the TGI (LOX IMVI melanoma) was 4.97 µM and the TGI (M14 melanoma) was 10.4 µM. It also gave a TGI (MALME-3M melanoma) of 6.09 µM, a TGI (MCF7 breast) of 9.15 µM and a TGI (MDA-MB-231 breast) of 15.4 µM. The TGI (MDA-MB-435) was 21.3 µM, the TGI (MDA-N) was 17.6 µM and the TGI (MOLT-4 leukemia) was 8.99 µM. It also gave a TGI (NCI-H226 lung) of 35.8 µM, a TGI (NCI-H23 lung) of 19.8 µM and a TGI (NCI-H460 lung) of 42.6 µM. It also gave a TGI (NCI-H522 lung) of 8.09 µM, a TGI (NCI/ADR-RES ovarian) of 45.7 µM and a TGI (OVCAR-3 ovarian) of 11.2 µM. It also gave a TGI (OVCAR-4 ovarian) of 12.9 µM, a TGI (OVCAR-5 ovarian) of 33.2 µM and a TGI (OVCAR-8 ovarian) greater than 49.3 µM. The TGI (PC-3 prostate) was 28.9 µM, the TGI (RPMI-8226 leukemia) was 5.03 µM and the TGI (RXF 393 renal) was 7.08 µM. The TGI (SF-268 CNS) was 19 µM, the TGI (SF-295 CNS) was 51.1 µM and the TGI (SF-539 CNS) was 31.2 µM. The TGI (SK-MEL-2 melanoma) was 38.8 µM, the TGI (SK-MEL-28 melanoma) was 15.6 µM and the TGI (SK-MEL-5 melanoma) was 30.7 µM. It also gave a TGI (SK-OV-3 ovarian) of 17.7 µM, a TGI (SN12C renal) of 29.6 µM and a TGI (SNB-19 CNS) of 40.5 µM. The TGI (SNB-75 CNS) was 29.2 µM, the TGI (SR leukemia) was greater than 21.3 µM and the TGI (SW-620 colon) was 4.79 µM. It also gave a TGI (T-47D breast) of 6.52 µM, a TGI (TK-10 renal) of 6.84 µM and a TGI (U251 CNS) of 46.3 µM. It also gave a TGI (UACC-257 melanoma) of 19.2 µM, a TGI (UACC-62 melanoma) of 29.5 µM and a TGI (UO-31 renal) of 12.4 µM.
